PubChem BioAssay AID328 (DTP/NCI, 2004)
Several values for one entry are separate records, joined by “and”; a condition that tells them apart may be missing. Equal values may be shown once. Toxic doses and inconclusive results are not listed.

System: BDF1 mice, P388 leukemia ip, median survival T/C
Experiment: NCI In Vivo Anticancer Drug Screen. Data for tumor model P388 Leukemia (intraperitoneal) in B6D2F1 (BDF1) mice
Conditions: endpoint: median survival time, higher = longer survival
Summary of the method: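 Steps: implant the tumour, treat one group with compound and another with vehicle, record survival, then divide treated by control.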

[1] = dose: 100.0 mg/kg/injection, schedule: Q04DX003 (ip), vehicle: Klucel (hydroxypropylcellulose) (HPC)
[2] = dose: 200.0 mg/kg/injection, schedule: Q04DX003 (ip), vehicle: Klucel (hydroxypropylcellulose) (HPC)
[3] = dose: 400.0 mg/kg/injection, schedule: Q04DX003 (ip), vehicle: Klucel (hydroxypropylcellulose) (HPC)
[4] = dose: 6.25 mg/kg/injection, schedule: Q01DX009 (ip), vehicle: saline
[5] = dose: 12.5 mg/kg/injection, schedule: Q01DX009 (ip), vehicle: saline
[6] = dose: 25.0 mg/kg/injection, schedule: Q01DX009 (ip), vehicle: saline with Tween-80
[7] = dose: 50.0 mg/kg/injection, schedule: Q01DX009 (ip), vehicle: saline with Tween-80
[8] = dose: 50.0 mg/kg/injection, schedule: Q04DX003 (ip), vehicle: saline with Tween-80
[9] = dose: 50.0 mg/kg/injection, schedule: Q04DX003 (ip), vehicle: saline
[10] = dose: 100.0 mg/kg/injection, schedule: Q01DX009 (ip), vehicle: saline with Tween-80
[11] = dose: 200.0 mg/kg/injection, schedule: Q01DX009 (ip), vehicle: saline with Tween-80
[12] = dose: 400.0 mg/kg/injection, schedule: Q01DX009 (ip), vehicle: saline with Tween-80
[13] = dose: 100.0 mg/kg/injection, schedule: Q04DX003 (ip), vehicle: saline
[14] = dose: 200.0 mg/kg/injection, schedule: Q04DX003 (ip), vehicle: saline
[15] = dose: 400.0 mg/kg/injection, schedule: Q04DX003 (ip), vehicle: saline
[16] = dose: 25.0 mg/kg/injection, schedule: Q01DX009 (ip), vehicle: saline
[17] = dose: 50.0 mg/kg/injection, schedule: Q01DX009 (ip), vehicle: saline
[18] = dose: 100.0 mg/kg/injection, schedule: Q04DX003 (ip), vehicle: saline with Tween-80
[19] = dose: 200.0 mg/kg/injection, schedule: Q04DX003 (ip), vehicle: saline with Tween-80
[20] = dose: 400.0 mg/kg/injection, schedule: Q04DX003 (ip), vehicle: saline with Tween-80

With CC(=O)[C@H]1CC[C@H]2[C@@H]3C[C@H](F)C4=CC(=O)CC[C@]4(C)[C@@]3(F)[C@@H](O)C[C@]12C the T/C (dose: 12.0 mg/kg/injection, schedule: Q01DX009 (ip), vehicle: Klucel (hydroxypropylcellulose) (HPC)) was 122 % of control, the T/C (dose: 12.5 mg/kg/injection, schedule: Q01DX009 (ip), vehicle: Klucel (hydroxypropylcellulose) (HPC)) was 115 % of control and the T/C (dose: 25.0 mg/kg/injection, schedule: Q01DX009 (ip), vehicle: Klucel (hydroxypropylcellulose) (HPC)) was 100 % of control and 103 % of control. The T/C (dose: 50.0 mg/kg/injection, schedule: Q01DX009 (ip), vehicle: Klucel (hydroxypropylcellulose) (HPC)) was 90 % of control and 100 % of control, the T/C [1] was 95 % of control and 113 % of control and the T/C [2] was 95 % of control and 113 % of control. For the same compound, the T/C [3] was 95 % of control and 104 % of control and 109 % of control.

With COc1cccc2c1C(=N)c1c(O)c3c(c(O)c1C2=O)C[C@@](O)(C(C)=O)C[C@@H]3OC1CC(N)C(O)C(C)O1 (some centres not stated) the T/C (dose: 3.46 mg/kg/injection, schedule: Q04DX003 (ip), vehicle: saline) was 177 % of control, the T/C (dose: 5.76 mg/kg/injection, schedule: Q04DX003 (ip), vehicle: saline) was 186 % of control and the T/C (dose: 9.6 mg/kg/injection, schedule: Q04DX003 (ip), vehicle: saline) was 180 % of control.

With O=C(OCC1OC(n2cnc3c(=O)[nH]c(=O)[nH]c32)C(OC(=O)c2ccccc2)C1OC(=O)c1ccccc1)c1ccccc1 (configuration not stated) the T/C (dose: 50.0 mg/kg/injection, schedule: Q01DX010 (ip), vehicle: saline with Tween-80) was 100 % of control, the T/C (dose: 100.0 mg/kg/injection, schedule: Q01DX010 (ip), vehicle: saline with Tween-80) was 90 % of control and the T/C (dose: 200.0 mg/kg/injection, schedule: Q01DX010 (ip), vehicle: saline with Tween-80) was 90 % of control. The T/C (dose: 400.0 mg/kg/injection, schedule: Q01DX010 (ip), vehicle: saline with Tween-80) was 90 % of control.

C[n+]1ccc(C#N)c2ccccc21 was tested, and the T/C (dose: 1.1 mg/kg/injection, schedule: Q04DX003 (ip), vehicle: saline) was 92 % of control and 100 % of control, the T/C (dose: 1.71 mg/kg/injection, schedule: Q04DX003 (ip), vehicle: saline) was 95 % of control and the T/C (dose: 2.5 mg/kg/injection, schedule: Q04DX003 (ip), vehicle: saline) was 88 % of control and 95 % of control. The T/C (dose: 3.12 mg/kg/injection, schedule: Q01DX009 (ip), vehicle: saline) was 104 % of control, the T/C (dose: 3.43 mg/kg/injection, schedule: Q04DX003 (ip), vehicle: saline) was 120 % of control and the T/C [4] was 118 % of control. For the same compound, the T/C (dose: 6.87 mg/kg/injection, schedule: Q04DX003 (ip), vehicle: saline) was 100 % of control, the T/C (dose: 7.5 mg/kg/injection, schedule: Q04DX003 (ip), vehicle: saline with Tween-80) was 91 % of control and the T/C (dose: 11.0 mg/kg/injection, schedule: Q01DX009 (ip), vehicle: saline) was 120 % of control. For the same compound, the T/C [5] was 118 % of control and the T/C (dose: 15.0 mg/kg/injection, schedule: Q04DX003 (ip), vehicle: saline with Tween-80) was 104 % of control.

Cc1cc(C)c(-n2c(-c3ccc(Cl)cc3)nnc2-c2ccc(Br)cc2)c(C)c1 was tested, and the T/C [1] was 104 % of control, the T/C [2] was 100 % of control and the T/C [3] was 90 % of control.

Cc1ccc(Oc2ccc3cc[n+](C)cc3c2)cc1 was tested, and the T/C (dose: 2.75 mg/kg/injection, schedule: Q01DX009 (ip), vehicle: saline) was 94 % of control, the T/C (dose: 4.12 mg/kg/injection, schedule: Q01DX009 (ip), vehicle: saline) was 105 % of control and the T/C (dose: 9.5 mg/kg/injection, schedule: Q01DX009 (ip), vehicle: saline) was 99 % of control. For the same compound, the T/C [5] was 118 % of control.

CCCCCCCCCCCCCC/[N+]([O-])=C/c1ccc([N+](=O)[O-])o1 was tested, and the T/C (dose: 6.25 mg/kg/injection, schedule: Q04DX002 (ip), vehicle: saline with Tween-80) was 91 % of control, the T/C (dose: 12.5 mg/kg/injection, schedule: Q04DX002 (ip), vehicle: saline with Tween-80) was 100 % of control and the T/C (dose: 25.0 mg/kg/injection, schedule: Q04DX002 (ip), vehicle: saline with Tween-80) was 87 % of control. The T/C (dose: 200.0 mg/kg/injection, schedule: Q04DX002 (ip), vehicle: saline with Tween-80) was 88 % of control.

With c1cc2ccsc2cn1 the T/C (dose: 12.5 mg/kg/injection, schedule: Q01DX009 (ip), vehicle: saline with Tween-80) was 103 % of control, the T/C [6] was 92 % of control and the T/C (dose: 25.0 mg/kg/injection, schedule: Q04DX003 (ip), vehicle: saline with Tween-80) was 95 % of control. For the same compound, the T/C [7] was 92 % of control and the T/C [8] was 91 % of control.

CCCCCCCCCCCCCC[N+](C)(C)CCCCCCCCCCCCCC was tested, and the T/C [4] was 120 % of control, the T/C (dose: 16.5 mg/kg/injection, schedule: Q01DX009 (ip), vehicle: saline) was 87 % of control and the T/C (dose: 17.0 mg/kg/injection, schedule: Q01DX009 (ip), vehicle: saline) was 119 % of control. For the same compound, the T/C (dose: 25.0 mg/kg/injection, schedule: Q04DX003 (ip), vehicle: saline) was 118 % of control, the T/C (dose: 37.0 mg/kg/injection, schedule: Q01DX009 (ip), vehicle: saline) was 119 % of control and the T/C [9] was 104 % of control.

In the case of C[Si](C)(C)O/C=C1/CCOC1=O, the T/C [7] is reported as 102 % of control, the T/C [10] is reported as 110 % of control and the T/C [11] is reported as 119 % of control. For the same compound, the T/C [12] was 117 % of control.

For O=C(CSc1ccccc1)NCc1cnccn1, the T/C [9] was 108 % of control, the T/C [13] was 92 % of control and the T/C [14] was 104 % of control. For the same compound, the T/C [15] was 100 % of control.

CC(C)CSC(C)C was tested, and the T/C [16] was 110 % of control, the T/C [17] was 110 % of control and the T/C (dose: 100.0 mg/kg/injection, schedule: Q01DX009 (ip), vehicle: saline) was 110 % of control.

CC1(C)N=C(N)N=C(N)N1c1cccc(CC(=O)Nc2ccc(S(=O)(=O)F)cc2)c1 was tested, and the T/C [6] was 120 % of control, the T/C [7] was 155 % of control and the T/C [10] was 175 % of control. The T/C [11] was 170 % of control.

For CC(=O)CC(C)(C)c1ccccc1, the T/C [16] was 118 % of control, the T/C [17] was 111 % of control and the T/C [9] was 105 % of control. The T/C [13] was 105 % of control, the T/C (dose: 200.0 mg/kg/injection, schedule: Q01DX009 (ip), vehicle: saline) was 93 % of control and the T/C [14] was 121 % of control. The T/C [15] was 102 % of control.

For CN1CCOC1=Nc1ccc(Cl)cc1, the T/C [8] was 104 % of control, the T/C [18] was 86 % of control and 100 % of control and the T/C [19] was 95 % of control. For the same compound, the T/C [20] was 90 % of control.

For C(=C(\Cc1ccccc1)c1ccccc1)/c1ccccc1, the T/C (dose: 50.0 mg/kg/injection, schedule: Q01DX005 (ip), vehicle: saline with Tween-80) was 99 % of control, the T/C (dose: 100.0 mg/kg/injection, schedule: Q01DX005 (ip), vehicle: saline with Tween-80) was 103 % of control and the T/C (dose: 200.0 mg/kg/injection, schedule: Q01DX005 (ip), vehicle: saline with Tween-80) was 103 % of control.

Cc1ncnc2c1CCC2 was tested, and the T/C [7] was 97 % of control, the T/C [10] was 111 % of control and the T/C [18] was 109 % of control. For the same compound, the T/C [11] was 87 % of control and the T/C [19] was 95 % of control.

For CCOC(=O)c1cc2ccccc2n1-c1ccccc1, the T/C [12] was 103 % of control.

C(=C\c1nc2ncccn2n1)/c1ccccc1 was tested, and the T/C [7] was 101 % of control, the T/C [10] was 87 % of control and the T/C [11] was 100 % of control.

For COc1cc2c(c(OC)c1OC)-c1ccc(SC)c(=O)cc1[C@@H](NC1OC(CO)C(O)C(O)C1O)CC2 (some centres not stated), the T/C [17] was 155 % of control.

With CC(=O)c1ccc2ccccc2c1O the T/C (dose: 100.0 mg/kg/injection, schedule: Q01DX001 (ip), vehicle: other) was 90 % of control, the T/C [10] was 104 % of control and the T/C [18] was 109 % of control. For the same compound, the T/C (dose: 175.0 mg/kg/injection, schedule: Q01DX009 (ip), vehicle: saline with Tween-80) was 122 % of control, the T/C (dose: 200.0 mg/kg/injection, schedule: Q01DX001 (ip), vehicle: other) was 100 % of control and the T/C [11] was 104 % of control. For the same compound, the T/C [19] was 104 % of control, the T/C (dose: 400.0 mg/kg/injection, schedule: Q01DX001 (ip), vehicle: other) was 95 % of control and the T/C [12] was 118 % of control. For the same compound, the T/C [20] was 104 % of control and the T/C (dose: 600.0 mg/kg/injection, schedule: Q01DX009 (ip), vehicle: saline with Tween-80) was 113 % of control.
